Entries after “also recorded” stand apart in the source; their conditions may differ. Positions of bridges follow the written chain, without caps; N, C: chain ends. Non-standard residues stand in square brackets, D forms with d. Residues, ends and D or L forms follow the SMILES beside them. No end group written: not given here.
Experiments:
[1] = biological target: T1, human nociceptin/orphanin FQ peptide receptor (NOP) (Homo sapiens, UniProt P41146); assay: [leucyl-3H]nociceptin displacement binding assay
T1 construct: expressed in transfected cells; host or cells: CHO cells (CHOhNOP; gift from GSK), membrane homogenate
Description: Radioactivity was determined after an 8 h extraction period.
(§1) The IC50 values were determined from the logarithmic concentration–displacement curves, and the values of the inhibitory constants (Ki) were calculated according to the equation of Cheng and Prusoff.

human KOP = biological target: T2, human KOP (Homo sapiens, UniProt P41145); assay: cell-based; conditions: for KOP α ± SEM: efficacy (intrinsic activity) relative to dynorphin A; for KOP α ± SEM / KOP pEC50 (CL95%): inactive = inactive up to 1 μM; for KOP pEC50 (CL95%): agonist potency, calcium mobilization
T2 construct: expressed in transfected cells; host or cells: CHO cells

human MOP [2] = biological target: T3, human MOP (Homo sapiens, UniProt P35372); assay: cell-based
human MOP [3] = biological target: T3, human MOP; assay: [3H]DAMGO displacement binding assay; design: purchased PerkinElmer; host or cells: CHO cells
Description: (§2) Membranes were incubated in 0.5 mL of 50 mM Tris/HCl (pH = 7.4), 0.5% bovine serum albumin (BSA), with a number of peptidase inhibitors (bacitracin, bestatin, captopril) and various concentrations of radioligands for 2 h at 25 °C. Non-specific binding was assessed in the presence of […] naloxone. Assays were incubated at room temperature for […] and reactions were terminated via filtration through Whatman GF/B filters, soaked in 0.5% polyethyleneimine (PEI), using Millipore Sampling Manifold (Billerica, MA, USA). Radioactivity was determined after an 8 h extraction period.
as §1

human DOP [4] = biological target: T4, human DOP (Homo sapiens, UniProt P41143); assay: [3H]deltorphin-2 displacement binding assay; design: purchased PerkinElmer; host or cells: CHO cells; conditions: for pKi DOP: displacement of [3H]deltorphin-2 from CHOhDOP cell homogenates, mean ± SEM, n = 5
Description: as §2, §1

human DOP [5] = biological target: T4, human DOP; assay type: cell-based; design: expressed in transfected cells; host or cells: CHO cells; conditions: inactive = inactive up to 1 μM; for DOP pEC50 (CL95%): agonist potency, calcium mobilization; for DOP α ± SEM: efficacy (intrinsic activity) relative to DPDPE
human NOP = human NOP (Homo sapiens, UniProt P41146); assay: calcium mobilization assay, CHO cells co-expressing NOP and Gαqi5; conditions: for NOP pEC50 (CL95%): agonist potency, calcium mobilization, inactive = inactive up to 1 μM
human MOP [6] = biological target: T3, human MOP; conditions: agonist potency, calcium mobilization; inactive = inactive up to 1 μM
mice [7] = assay: rotarod test (motor coordination); assay type: in vivo; conditions: 6.2 nmol/animal, i.t.; compared to control group
Description: Rotarod apparatus (Ugo Basile, No. 8466, Italy) was used to estimate the probable influence of peptide on motor coordination of animals. In the training period, 3 trials were conducted for 3 consecutive days. Animals that were able to stay on the rotating (16 revolutions/min) bar more than 180 s were chosen for the tests. In the experimental session, each animal was tested on the rotarod, and duration to fall from the rotating bar was noted.

mice [8] = assay: mouse hot-plate test (antinociception); conditions: i.t. administration, value with range in parentheses
RP-170 = biological target: T5, RP-170 (lactam 2-5); assay: radioligand competition ([3H]deltorphin-2)
T5 chain: Y[dK]FFD-NH2

KW-496 = biological target: T6, KW-496 (lactam 2-5); assay: radioligand competition ([3H]deltorphin-2)
T6 chain: Y[dK]FFDGGGRYYRIK-NH2

KW-495 = biological target: T7, KW-495 (lactam 2-5); assay: radioligand competition ([3H]deltorphin-2)
T7 chain: Y[dK]FFDRYYRIK-NH2

human NOP, sequence (P41146 whole entry): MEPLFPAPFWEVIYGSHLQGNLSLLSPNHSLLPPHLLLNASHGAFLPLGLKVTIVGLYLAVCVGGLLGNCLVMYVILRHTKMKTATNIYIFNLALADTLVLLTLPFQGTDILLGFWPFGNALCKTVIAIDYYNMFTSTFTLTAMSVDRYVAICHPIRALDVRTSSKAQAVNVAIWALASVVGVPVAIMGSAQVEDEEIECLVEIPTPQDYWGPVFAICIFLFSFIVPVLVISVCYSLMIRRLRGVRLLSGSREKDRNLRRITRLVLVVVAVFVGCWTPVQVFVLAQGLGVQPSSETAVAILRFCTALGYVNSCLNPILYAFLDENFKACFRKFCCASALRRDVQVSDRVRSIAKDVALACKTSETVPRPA
T3 sequence (P35372 whole entry): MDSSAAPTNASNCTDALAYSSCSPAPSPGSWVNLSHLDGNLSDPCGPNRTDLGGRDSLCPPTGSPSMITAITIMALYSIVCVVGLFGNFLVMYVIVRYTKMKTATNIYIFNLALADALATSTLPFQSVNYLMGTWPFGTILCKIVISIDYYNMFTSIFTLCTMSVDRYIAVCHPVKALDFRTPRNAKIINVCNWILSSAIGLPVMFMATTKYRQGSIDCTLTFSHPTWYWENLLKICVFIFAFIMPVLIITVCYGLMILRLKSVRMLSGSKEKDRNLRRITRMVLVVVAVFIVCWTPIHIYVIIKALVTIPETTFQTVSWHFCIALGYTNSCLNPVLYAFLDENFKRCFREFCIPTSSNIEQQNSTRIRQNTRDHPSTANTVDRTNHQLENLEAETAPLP
T2 sequence (P41145 whole entry): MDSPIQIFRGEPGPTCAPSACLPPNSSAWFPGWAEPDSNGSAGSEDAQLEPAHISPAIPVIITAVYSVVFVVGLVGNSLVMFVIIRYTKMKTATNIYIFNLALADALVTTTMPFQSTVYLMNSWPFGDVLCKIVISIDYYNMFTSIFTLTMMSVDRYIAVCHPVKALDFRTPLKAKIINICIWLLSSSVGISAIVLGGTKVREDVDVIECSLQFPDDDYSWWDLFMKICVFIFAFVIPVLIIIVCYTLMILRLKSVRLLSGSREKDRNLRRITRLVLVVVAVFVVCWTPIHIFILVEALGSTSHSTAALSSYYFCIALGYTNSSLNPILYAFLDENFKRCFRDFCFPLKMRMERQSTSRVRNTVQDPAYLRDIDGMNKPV
T1 sequence (P41146 whole entry): as the sequence (P41146 whole entry) above

With `CC[C@H](C)[C@H](NC(=O)[C@H](CCCNC(=N)N)NC(=O)[C@H](Cc1ccc(O)cc1)NC(=O)[C@H](Cc1ccc(O)cc1)NC(=O)[C@H](CCCNC(=N)N)NC(=O)CNC(=O)CNC(=O)CNC(=O)[C@@H]1CC(=O)NCCCC[C@@H](NC(=O)[C@@H](N)Cc2ccc(O)cc2)C(=O)N[C@@H](Cc2ccccc2)C(=O)N[C@@H](Cc2ccccc2)C(=O)N1)C(=O)N[C@@H](CCCCN)C(N)=O` [KW-496] (HELM PEPTIDE1{Y.[dK].F.F.D.G.G.G.R.Y.Y.R.I.K.[am]}$PEPTIDE1,PEPTIDE1,2:R3-5:R3$$$V2.0) the Ki [1] was 44.7 nM, the EC50 (human KOP) was 1.15 nM and the “KOP α ± SEM” value (human KOP) was 1.03 ± 0.02. For the same molecule, the EC50 (human MOP [2]) was 4.9 nM, the Ki (human MOP [3]) was 4.68 nM and the Ki (human DOP [4]) was greater than 1000 nM. The “pKi DOP” value (human DOP [4]) was “did not bind to DOP”, the “DOP pEC50 (CL95%)” value (human DOP [5]) was “inactive” and the “DOP α ± SEM” value (human DOP [5]) was “inactive”. The “NOP pEC50 (CL95%)” value (human NOP) was “incomplete concentration–response curve; also recorded: Crc incomplete” and the “NOP α at 1 μM (Crc incomplete)” value (human NOP; effect at 1 μM relative to N/OFQ, concentration-response curve incomplete) was 0.33 ± 0.10.

In the case of `CC[C@H](C)[C@H](NC(=O)[C@H](CCCNC(=N)N)NC(=O)[C@H](CCCNC(=N)N)NC(=O)[C@H](CC(C)C)NC(=O)[C@H](Cc1ccccc1)NC(=O)CNC(=O)CNC(=O)[C@@H](N)Cc1ccc(O)cc1)C(=O)N[C@@H](CCCNC(=N)N)C(=O)N1CCC[C@H]1C(=O)N[C@@H](CCCCN)C(=O)N[C@@H](CC(C)C)C(=O)N[C@@H](CCCCN)C(=O)N[C@@H](Cc1c[nH]c2ccccc12)C(=O)N[C@@H](CC(=O)O)C(=O)N[C@@H](CC(N)=O)C(=O)N[C@@H](CCC(N)=O)C(=O)O` [dynorphin A, reference compound], the “DOP α ± SEM” value (human DOP [5]) is reported as 1.00 and the “NOP pEC50 (CL95%)” value (human NOP) is reported as “inactive”.

`CC[C@H](C)[C@H](NC(=O)[C@H](CCCNC(=N)N)NC(=O)[C@H](Cc1ccc(O)cc1)NC(=O)[C@H](Cc1ccc(O)cc1)NC(=O)[C@H](CCCNC(=N)N)NC(C)=O)C(=O)N[C@@H](CCCCN)C(N)=O` [Ac-RYYRIK-NH2, Ac-Arg-Tyr-Tyr-Arg-Ile-Lys-NH2] was tested, and the “KOP pEC50 (CL95%)” value (human KOP) was “inactive”, the “KOP α ± SEM” value (human KOP) was “inactive” and the “MOP pEC50 (CL95%)” value (human MOP [6]) was “inactive”. The “DOP pEC50 (CL95%)” value (human DOP [5]) was “inactive” and the “DOP α ± SEM” value (human DOP [5]) was “inactive”.

In the case of `CC[C@H](C)[C@H](NC(=O)[C@H](CCCNC(=N)N)NC(=O)[C@H](Cc1ccc(O)cc1)NC(=O)[C@H](Cc1ccc(O)cc1)NC(=O)[C@H](CCCNC(=N)N)NC(=O)[C@@H]1CC(=O)NCCCC[C@@H](NC(=O)[C@@H](N)Cc2ccc(O)cc2)C(=O)N[C@@H](Cc2ccccc2)C(=O)N[C@@H](Cc2ccccc2)C(=O)N1)C(=O)N[C@@H](CCCCN)C(N)=O` [KW-495, Tyr-c[D-Lys-Phe-Phe-Asp]-Arg-Tyr-Tyr-Arg-Ile-Lys-NH2] (HELM PEPTIDE1{Y.[dK].F.F.D.R.Y.Y.R.I.K.[am]}$PEPTIDE1,PEPTIDE1,2:R3-5:R3$$$V2.0; N-terminus assumed), the Ki [1] is reported as 2.24 nM, the EC50 (human KOP) is reported as 2.82 nM and the “effect on motor coordination (falling latency)” value (mice [7]) is reported as “did not cause any significant effect”. The EC50 (human MOP [2]) was 8.71 nM, the “ED50 (jumping response)” value (mice [8]) was 4.59 (1.17–18.09) nmol and the Ki (human MOP [3]) was 4.47 nM. The Ki (human DOP [4]) was greater than 1000 nM, the “pKi DOP” value (human DOP [4]) was “did not bind to DOP” and the “DOP pEC50 (CL95%)” value (human DOP [5]) was “inactive”. The “DOP α ± SEM” value (human DOP [5]) was “inactive” and the EC50 (human NOP) was 75.9 nM.

`NC(=O)[C@@H]1CC(=O)NCCCC[C@@H](NC(=O)[C@@H](N)Cc2ccc(O)cc2)C(=O)N[C@@H](Cc2ccccc2)C(=O)N[C@@H](Cc2ccccc2)C(=O)N1` [RP-170, Tyr-c[D-Lys-Phe-Phe-Asp]-NH2, reference compound] (HELM PEPTIDE1{Y.[dK].F.F.D.[am]}$PEPTIDE1,PEPTIDE1,2:R3-5:R3$$$V2.0; N-terminus assumed) was tested, and the “KOP α ± SEM” value (human KOP) was 1.00 ± 0.03, the Ki (human MOP [3]) was 0.617 nM and the Ki (human DOP [4]) was 295 nM. For the same molecule, the “DOP pEC50 (CL95%)” value (human DOP [5]) was “inactive”, the “DOP α ± SEM” value (human DOP [5]) was “inactive” and the “NOP pEC50 (CL95%)” value (human NOP) was “completely inactive”.

With `CC(C)C[C@H](NC(=O)[C@H](CCCCN)NC(=O)[C@H](CCCNC(=N)N)NC(=O)[C@H](C)NC(=O)[C@H](CO)NC(=O)[C@H](CCCCN)NC(=O)[C@H](CCCNC(=N)N)NC(=O)[C@H](C)NC(=O)CNC(=O)[C@@H](NC(=O)[C@H](Cc1ccccc1)NC(=O)CNC(=O)CNC(=O)[C@@H](N)Cc1ccccc1)[C@@H](C)O)C(=O)N[C@@H](C)C(=O)N[C@@H](CC(N)=O)C(=O)N[C@@H](CCC(N)=O)C(=O)O` [N/OFQ] the “MOP pEC50 (CL95%)” value (human MOP [6]) was “inactive”.

With `CC1(C)SSC(C)(C)[C@@H](NC(=O)[C@@H](N)Cc2ccc(O)cc2)C(=O)NCC(=O)N[C@@H](Cc2ccccc2)C(=O)N[C@H]1C(=O)O` [DPDPE] the “KOP pEC50 (CL95%)” value (human KOP) was “inactive”, the “KOP α ± SEM” value (human KOP) was “inactive” and the “NOP pEC50 (CL95%)” value (human NOP) was “inactive”.

B1: DOP (protein)
chain: MEPAPSAGAELQPPLFANASDAYPSACPSAGANASGPPGARSASSLALAIAITALYSAVCAVGLLGNVLVMFGIVRYTKMKTATNIYIFNLALADALATSTLPFQSAKYLMETWPFGELLCKAVLSIDYYNMFTSIFTLTMMSVDRYIAVCHPVKALDFRTPAKAKLINICIWVLASGVGVPIMVMAVTRPRDGAVVCMLQFPSPSWYWDTVTKICVFLFAFVVPILIITVCYGLMLLRLRSVRLLSGSKEKDRSLRRITRMVLVVVGAFVVCWAPIHIFVIVWTLVDIDRRDPLVVAALHLCIALGYANSSLNPVLYAFLDENFKRCFRQLCRKPCGRPDPSSFSRAREATARERVTACTPSDGPGGGAAA
With B1 the Ki (RP-170) was 295 nM, the Ki (KW-496) was greater than 1000 nM and the Ki (KW-495) was greater than 1000 nM.
